Measurements from patent US20230295110A1, “PHD INHIBITOR COMPOUNDS, COMPOSITIONS, AND METHODS OF USE” (Akebia Therapeutics, Inc., priority 2020, published 2023).
pIC50: −log10 of the molar value. Read-outs that look alike come from different tables or passages of the source.

Experiments:
full-length human PHD1 = full-length human PHD1 (Homo sapiens (Human), UniProt Q96KS0); experiment: TR-FRET assay for PHD enzymes, PHD1; type: biochemical; settings: for pIC50: TR-FRET, 15 nM PHD1, 1 μM 2-OG
Text: PHD1 was expressed in a baculovirus expression system as the full-length protein (NCBI accession number NP_542770.2) with an N-terminal FLAG tag (molecular weight 44.9 kDa).

full-length human PHD2 = full-length human PHD2 (Homo sapiens (Human), UniProt Q9GZT9); experiment: TR-FRET assay for PHD enzymes, PHD2
Text: Time-resolved fluorescence resonance energy transfer (TR-FRET) assay was utilized to determine the enzymatic half maximal inhibitory concentration (IC50) value of PHD inhibitors against the full-length human prolyl-4-hydroxylase domain (PHD) enzymes, PHD1, PHD2, and PHD3. The TR-FRET assay was developed based on the specific binding of hydroxylated HIF-1α peptide with the complex formed by VHL, EloB and EloC (VBC), to generate a fluorescent signal. Terbium (Tb)-Donor (monoclonal antibody anti-6His-Tb-cryptate Gold) and D2-acceptor (streptavidin [SA]-D2) of TR-FRET are linked to the VBC complex and to HIF-1α peptide, respectively. The VBC complex binds specifically to the HIF-1α peptide when it is hydroxylated, allowing energy transfer from TR-FRET donor to acceptor (FIG. 1). […] The plates were incubated for 30 minutes at room temperature without rotation. […] TR-FRET assays were performed in triplicate at each concentration of compound and the assays were repeated independently three times.

full-length human PHD3 = full-length human PHD3 (Homo sapiens (Human), UniProt Q9H6Z9); experiment: TR-FRET assay for PHD enzymes, PHD3; type: biochemical; settings: TR-FRET, 35 nM PHD3, 1 μM 2-OG
Text: Recombinant human PHD3 protein (molecular weight 31.1 kDa) was purchased from Active Motif (Carlsbad, CA, USA). It was expressed in E. coli as the full-length protein (NCBI accession number NP_071356.1) with an N-terminal 6-His tag (catalog #81033, Lot #24417001).

[1] = read-out: PHD2 IC50, TR-FRET, 5 nM PHD2, 1 μM 2-OG

Chain of full-length human PHD1 (Q96KS0 whole entry): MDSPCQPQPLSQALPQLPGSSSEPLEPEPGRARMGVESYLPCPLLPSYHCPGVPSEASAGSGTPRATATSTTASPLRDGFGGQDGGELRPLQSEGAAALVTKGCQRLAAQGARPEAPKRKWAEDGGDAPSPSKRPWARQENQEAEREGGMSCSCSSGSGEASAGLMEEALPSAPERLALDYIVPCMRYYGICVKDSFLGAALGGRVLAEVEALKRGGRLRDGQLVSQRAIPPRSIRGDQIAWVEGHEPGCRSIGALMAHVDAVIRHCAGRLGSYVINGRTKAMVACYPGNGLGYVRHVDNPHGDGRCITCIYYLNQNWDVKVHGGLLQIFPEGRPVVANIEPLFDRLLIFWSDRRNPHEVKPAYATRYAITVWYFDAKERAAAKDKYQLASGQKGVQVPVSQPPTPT
Chain of full-length human PHD2 (Q9GZT9 whole entry): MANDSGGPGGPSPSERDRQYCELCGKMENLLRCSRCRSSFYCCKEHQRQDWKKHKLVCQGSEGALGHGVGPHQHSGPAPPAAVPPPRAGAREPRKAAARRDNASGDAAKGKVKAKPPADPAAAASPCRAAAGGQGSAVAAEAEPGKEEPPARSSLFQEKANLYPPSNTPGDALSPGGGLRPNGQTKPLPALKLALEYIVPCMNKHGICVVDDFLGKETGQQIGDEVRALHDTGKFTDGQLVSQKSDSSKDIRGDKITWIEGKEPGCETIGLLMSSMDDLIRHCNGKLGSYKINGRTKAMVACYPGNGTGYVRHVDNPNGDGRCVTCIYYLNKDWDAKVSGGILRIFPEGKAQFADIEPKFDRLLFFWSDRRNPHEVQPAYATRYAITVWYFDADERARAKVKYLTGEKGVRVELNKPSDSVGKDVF
Chain of full-length human PHD3 (Q9H6Z9 whole entry): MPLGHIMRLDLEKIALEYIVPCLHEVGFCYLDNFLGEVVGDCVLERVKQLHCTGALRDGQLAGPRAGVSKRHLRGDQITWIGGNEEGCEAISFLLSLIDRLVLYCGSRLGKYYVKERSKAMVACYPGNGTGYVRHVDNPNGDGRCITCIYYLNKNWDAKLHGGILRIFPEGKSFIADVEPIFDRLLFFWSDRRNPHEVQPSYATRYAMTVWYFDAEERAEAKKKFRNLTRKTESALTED

In the case of `Cc1c(N2CCC(c3ccccc3)CC2)cnc(C(=O)NCC(=O)O)c1O` [Compound 56], the pIC50 (full-length human PHD1) was > 7.00 and the pIC50 (full-length human PHD2; [1]) was > 7.00.

In the case of `Cc1c(-c2cccc(Oc3ccccc3)c2)cnc(C(=O)NCC(=O)O)c1O` [Compound 8, (3-Hydroxy-4-methyl-5-(3-phenoxyphenyl)picolinoyl)glycine], the pIC50 (full-length human PHD1) was > 7.00 and the pIC50 (full-length human PHD2; [1]) was > 7.00.

For `Cc1nn(-c2cccc(F)c2)cc1-c1cnc(C(=O)NCC(=O)O)c(O)c1C` [Compound 39, (5-(1-(3-fluorophenyl)-3-methyl-1H-pyrazol-4-yl)-3-hydroxy-4-methylpicolinoyl)glycine], the pIC50 (full-length human PHD1) was > 7.00, the pIC50 (full-length human PHD3) was > 7.00 and the pIC50 (full-length human PHD2; [1]) was > 7.00.

`Cc1nc(-c2ccccc2)sc1-c1cnc(C(=O)NCC(=O)O)c(O)c1C` [Compound 37, (3-hydroxy-4-methyl-5-(4-methyl-2-phenylthiazol-5-yl)picolinoyl)glycine] was tested, and the pIC50 (full-length human PHD1) was > 7.00, the pIC50 (full-length human PHD3) was > 7.00 and the pIC50 (full-length human PHD2; [1]) was > 7.00.

`Cc1c(-c2cnn(-c3ccccc3)c2C)cnc(C(=O)NCC(=O)O)c1O` [Compound 50, (3-hydroxy-4-methyl-5-(5-methyl-1-phenyl-1H-pyrazol-4-yl)picolinoyl)glycine] gave a pIC50 (full-length human PHD1) of 6.00 to 7.00 and a pIC50 (full-length human PHD2) of 6.00 to 7.00.

Compound `Cc1c(S(=O)(=O)c2ccccc2)cnc(C(=O)NCC(=O)O)c1O` [Compound 54] has a pIC50 (full-length human PHD1) of 6.00 to 7.00 and a pIC50 (full-length human PHD2) of 6.00 to 7.00.

For `Cc1c(N2CCN(c3ccccc3)CC2)cnc(C(=O)NCC(=O)O)c1O` [Compound 55], the pIC50 (full-length human PHD1) was > 7.00 and the pIC50 (full-length human PHD2) was 6.00 to 7.00.

`Cc1ncccc1-c1cnc(C(=O)NCC(=O)O)c(O)c1C` [Compound 29] gave a pIC50 (full-length human PHD1) of 6.00 to 7.00 and a pIC50 (full-length human PHD2) of 6.00 to 7.00.

For `O=C(O)CNC(=O)c1ncc(-c2cccc(Cl)c2)c(C(F)F)c1O` [Compound 70, (5-(3-Chlorophenyl)-4-(difluoromethyl)-3-hydroxypicolinoyl)glycine], the pIC50 (full-length human PHD1) was 6.00 to 7.00 and the pIC50 (full-length human PHD2) was 6.00 to 7.00.

For `O=C(O)CNC(=O)c1ncc(-c2cccc(Cl)c2)c(C2CC2)c1O` [Compound 69, (5-(3-Chlorophenyl)-4-cyclopropyl-3-hydroxypicolinoyl)glycine], the pIC50 (full-length human PHD1) was 6.00 to 7.00 and the pIC50 (full-length human PHD2) was 6.00 to 7.00.

With `Cc1c(-c2ccc(C(F)(F)F)nc2)cnc(C(=O)NCC(=O)O)c1O` [Compound 9, (5-Hydroxy-4-methyl-6′-(trifluoromethyl)-[3,3′-bipyridine]-6-carbonyl)glycine] the pIC50 (full-length human PHD1) was > 7.00, the pIC50 (full-length human PHD3) was > 7.00 and the pIC50 (full-length human PHD2; [1]) was > 7.00.

For `Cc1c(-c2cnn(CC(C)C)c2)cnc(C(=O)NCC(=O)O)c1O` [Compound 22, (3-Hydroxy-5-(1-isobutyl-1H-pyrazol-4-yl)-4-methylpicolinoyl)glycine], the pIC50 (full-length human PHD1) was > 7.00, the pIC50 (full-length human PHD3) was > 7.00 and the pIC50 (full-length human PHD2; [1]) was > 7.00.

For `Cc1c(-c2cccc(Cl)c2)cnc(C(=O)NC2(C(=O)O)CCC2)c1O` [Compound 15, 1-(5-(3-Chlorophenyl)-3-hydroxy-4-methylpicolinamido)cyclobutane-1-carboxylic acid], the pIC50 (full-length human PHD1) was < 5.00 and the pIC50 (full-length human PHD2) was < 5.00.

In the case of `Cc1c(-c2ccccn2)cnc(C(=O)NCC(=O)O)c1O` [Compound 12, (5′-Hydroxy-4′-methyl-[2,3′-bipyridine]-6′-carbonyl)glycine], the pIC50 (full-length human PHD1) was > 7.00 and the pIC50 (full-length human PHD2; [1]) was > 7.00.

For `Cc1c(CCc2ccccc2)cnc(C(=O)NCC(=O)O)c1O` [Compound 61], the pIC50 (full-length human PHD1) was 6.00 to 7.00 and the pIC50 (full-length human PHD2) was 6.00 to 7.00.

Work on `Cc1c(Oc2ccccc2)cnc(C(=O)NCC(=O)O)c1O` [Compound 57, 2-(3-hydroxy-4-methyl-5-phenoxypicolinamido)acetic acid] yielded a pIC50 (full-length human PHD1) of 5.00 to 6.00 and a pIC50 (full-length human PHD2) of 6.00 to 7.00.

`Cc1c(-c2cnn(-c3ccccc3)c2)cnc(C(=O)NCC(=O)O)c1O` [Compound 4, (3-Hydroxy-4-methyl-5-(1-phenyl-1H-pyrazol-4-yl)picolinoyl)glycine] was tested, and the pIC50 (full-length human PHD1) was > 7.00 and the pIC50 (full-length human PHD2; [1]) was > 7.00.

In the case of `Cc1c(-c2cccc(Cl)c2)cnc(C(=O)NCC(=O)O)c1O` [Compound 32, (5-(3-chlorophenyl)-3-hydroxy-4-methylpicolinoyl)glycine], the pIC50 (full-length human PHD1) was > 7.00, the pIC50 (full-length human PHD3) was > 7.00 and the pIC50 (full-length human PHD2; [1]) was > 7.00.

In the case of `Cc1c(-c2ccc3ncccc3c2)cnc(C(=O)NCC(=O)O)c1O` [Compound 34, (3-hydroxy-4-methyl-5-(quinolin-6-yl)picolinoyl)glycine], the pIC50 (full-length human PHD1) was > 7.00 and the pIC50 (full-length human PHD2; [1]) was > 7.00.

In the case of `Cc1c(Cc2ccccc2)cnc(C(=O)NCC(=O)O)c1O` [Compound 58], the pIC50 (full-length human PHD1) was 5.00 to 6.00 and the pIC50 (full-length human PHD2) was 6.00 to 7.00.

In the case of `Cc1c(C#CCOc2ccccc2)cnc(C(=O)NCC(=O)O)c1O` [Compound 53], the pIC50 (full-length human PHD1) was > 7.00 and the pIC50 (full-length human PHD2; [1]) was > 7.00.

With `CCc1c(-c2cccc(Cl)c2)cnc(C(=O)NCC(=O)O)c1O` [Compound 46, (5-(3-chlorophenyl)-4-ethyl-3-hydroxypicolinoyl)glycine] the pIC50 (full-length human PHD1) was > 7.00 and the pIC50 (full-length human PHD2; [1]) was > 7.00.

For `Cc1c(-c2cccc(Cl)c2)cnc(C(=O)NC2(C(=O)O)CC2)c1O` [Compound 14, 1-(5-(3-Chlorophenyl)-3-hydroxy-4-methylpicolinamido)cyclopropane-1-carboxylic acid], the pIC50 (full-length human PHD1) was 5.00 to 6.00 and the pIC50 (full-length human PHD2) was 5.00 to 6.00.

With `Cc1cc(Cc2ccc(F)cc2)c(O)c(C(=O)NCC(=O)O)n1` [Compound 24, (4-(4-Fluorobenzyl)-3-hydroxy-6-methylpicolinoyl)glycine] the pIC50 (full-length human PHD1) was 6.00 to 7.00 and the pIC50 (full-length human PHD2) was 6.00 to 7.00.

Work on `Cc1cc(CCOCc2ccccc2)c(O)c(C(=O)NCC(=O)O)n1` [Compound 23, (4-(2-(Benzyloxy)ethyl)-3-hydroxy-6-methylpicolinoyl)glycine] yielded a pIC50 (full-length human PHD1) of 6.00 to 7.00 and a pIC50 (full-length human PHD2) of 6.00 to 7.00.

With `Cc1c(-c2cnn(-c3ccccc3)c2F)cnc(C(=O)NCC(=O)O)c1O` [Compound 49, (5-(5-fluoro-1-phenyl-1H-pyrazol-4-yl)-3-hydroxy-4-methylpicolinoyl)glycine] the pIC50 (full-length human PHD1) was > 7.00 and the pIC50 (full-length human PHD2; [1]) was > 7.00.

`Cc1c(-c2nnn(-c3ccccc3)n2)cnc(C(=O)NCC(=O)O)c1O` [Compound 65] was tested, and the pIC50 (full-length human PHD1) was > 7.00 and the pIC50 (full-length human PHD2; [1]) was > 7.00.

In the case of `Cc1c(-c2cccc(Cl)c2)cnc(C(=O)NC(C)(C)C(=O)O)c1O` [Compound 13, 2-(5-(3-Chlorophenyl)-3-hydroxy-4-methylpicolinamido)-2-methylpropanoic Acid], the pIC50 (full-length human PHD1) was < 5.00 and the pIC50 (full-length human PHD2) was < 5.00.

For `Cc1c(-c2nnn(-c3cc(Cl)cc(Cl)c3)n2)cnc(C(=O)NCC(=O)O)c1O` [Compound 45, (5-(2-(3,5-dichlorophenyl)-2H-tetrazol-5-yl)-3-hydroxy-4-methylpicolinoyl)glycine], the pIC50 (full-length human PHD1) was > 7.00 and the pIC50 (full-length human PHD2; [1]) was > 7.00.

With `Cc1c(-c2cnn(-c3cc(Cl)cc(Cl)c3)c2)cnc(C(=O)NCC(=O)O)c1O` [Compound 66] the pIC50 (full-length human PHD1) was > 7.00 and the pIC50 (full-length human PHD2; [1]) was > 7.00.

`Cc1c(-c2cnn(-c3ccc(C(F)(F)F)cc3)c2)cnc(C(=O)NCC(=O)O)c1O` [Compound 67] was tested, and the pIC50 (full-length human PHD1) was > 7.00 and the pIC50 (full-length human PHD2; [1]) was > 7.00.

For `Cc1c(C(=O)c2ccccc2)cnc(C(=O)NCC(=O)O)c1O` [Compound 40, (5-benzoyl-3-hydroxy-4-methylpicolinoyl)glycine], the pIC50 (full-length human PHD1) was 6.00 to 7.00 and the pIC50 (full-length human PHD2) was 6.00 to 7.00.

In the case of `Cc1c(-c2cnn(C3CCN(C(=O)OC(C)(C)C)CC3)c2)cnc(C(=O)NCC(=O)O)c1O` [Compound 6, (5-(1-(1-(Tert-butoxycarbonyl)piperidin-4-yl)-1H-pyrazol-4-yl)-3-hydroxy-4-methylpicolinoyl)glycine], the pIC50 (full-length human PHD1) was > 7.00 and the pIC50 (full-length human PHD2; [1]) was > 7.00.

`Cc1c(-c2cccc(F)c2)cnc(C(=O)NCC(=O)O)c1O` [Compound 1, (5-(3-Fluorophenyl)-3-hydroxy-4-methylpicolinoyl)glycine] was tested, and the pIC50 (full-length human PHD1) was > 7.00 and the pIC50 (full-length human PHD2; [1]) was > 7.00.

`Cc1c(Oc2ccccc2)cnc(C(=O)NCC(=O)O)c1O` [Compound 35, (3-hydroxy-4-methyl-5-phenoxypicolinoyl)glycine] was tested, and the pIC50 (full-length human PHD1) was 6.00 to 7.00 and the pIC50 (full-length human PHD2; [1]) was 6.00 to 7.00.

In the case of `Cc1c(-c2nnn(C3CC3)n2)cnc(C(=O)NCC(=O)O)c1O` [Compound 52], the pIC50 (full-length human PHD1) was > 7.00 and the pIC50 (full-length human PHD2; [1]) was > 7.00.

`Cc1c(-c2cccc(Cl)c2)cnc(C(=O)NC2(C(=O)O)COC2)c1O` [Compound 16, 3-(5-(3-Chlorophenyl)-3-hydroxy-4-methylpicolinamido)oxetane-3-carboxylic Acid] was tested, and the pIC50 (full-length human PHD1) was 5.00 to 6.00 and the pIC50 (full-length human PHD2) was < 5.00.

For `Cc1c(C#Cc2ccccc2)cnc(C(=O)NCC(=O)O)c1O` [Compound 62], the pIC50 (full-length human PHD1) was > 7.00 and the pIC50 (full-length human PHD2; [1]) was > 7.00.

`Cc1c(-c2nn[nH]n2)cnc(C(=O)NCC(=O)O)c1O` [Compound 64] was tested, and the pIC50 (full-length human PHD1) was 6.00 to 7.00 and the pIC50 (full-length human PHD2) was 6.00 to 7.00.

In the case of `Cc1c(-c2nnn(-c3ccc(Cl)cc3)n2)cnc(C(=O)NCC(=O)O)c1O` [Compound 63], the pIC50 (full-length human PHD1) was > 7.00 and the pIC50 (full-length human PHD2; [1]) was > 7.00.

`Cc1c(Sc2ccccc2)cnc(C(=O)NCC(=O)O)c1O` [Compound 59] showed a pIC50 (full-length human PHD1) of 5.00 to 6.00 and a pIC50 (full-length human PHD2) of 6.00 to 7.00.

With `O=C(O)CCC(=O)C(=O)O` [Compound 2-OG, 2-oxoglutarate, reference compound] the Km (full-length human PHD1; read-out: Km of 2-OG for PHD1) was 0.0127 µM.

With `Cc1c(-c2ccc3c(c2)CCC(C)N3)cnc(C(=O)NCC(=O)O)c1O` (stereo not drawn) [Compound 17, (3-Hydroxy-4-methyl-5-(2-methyl-1,2,3,4-tetrahydroquinolin-6-yl)picolinoyl)glycine] the pIC50 (full-length human PHD1) was > 7.00 and the pIC50 (full-length human PHD2; [1]) was > 7.00.

For `Cc1c(-c2ccncc2)cnc(C(=O)NCC(=O)O)c1O` [Compound 11, (5-Hydroxy-4-methyl-[3,4′-bipyridine]-6-carbonyl)glycine], the pIC50 (full-length human PHD1) was > 7.00 and the pIC50 (full-length human PHD2; [1]) was > 7.00.

For `Cc1c(-c2cnn(-c3ccc(Cl)cc3Cl)c2)cnc(C(=O)NCC(=O)O)c1O` [Compound 60], the pIC50 (full-length human PHD1) was > 7.00 and the pIC50 (full-length human PHD2; [1]) was > 7.00.

With `Cc1c(-c2ccn(-c3ccccc3)c2)cnc(C(=O)NCC(=O)O)c1O` [Compound 51] the pIC50 (full-length human PHD1) was > 7.00 and the pIC50 (full-length human PHD2) was 6.00 to 7.00.
